What was measured:
[1] = target: human AT1R receptor expressed in the CHO cell line (Homo sapiens (Human), UniProt P30556); conditions: different concentrations of AngII with fixed concentration of pyr apelin-13; human AT1R expressed alone in CHO cells
Method: The function of the inositol phosphate accumulation (IP1) was measured by Time-resolved fluorescence resonance energy (TR-FRET) at 620 nm and 665 nm respectively.

APJ = APJ (Homo sapiens (Human), UniProt P35414); conditions: 2003 study, Medhurst et al.; cited from earlier work
Chain of APJ (P35414 whole entry): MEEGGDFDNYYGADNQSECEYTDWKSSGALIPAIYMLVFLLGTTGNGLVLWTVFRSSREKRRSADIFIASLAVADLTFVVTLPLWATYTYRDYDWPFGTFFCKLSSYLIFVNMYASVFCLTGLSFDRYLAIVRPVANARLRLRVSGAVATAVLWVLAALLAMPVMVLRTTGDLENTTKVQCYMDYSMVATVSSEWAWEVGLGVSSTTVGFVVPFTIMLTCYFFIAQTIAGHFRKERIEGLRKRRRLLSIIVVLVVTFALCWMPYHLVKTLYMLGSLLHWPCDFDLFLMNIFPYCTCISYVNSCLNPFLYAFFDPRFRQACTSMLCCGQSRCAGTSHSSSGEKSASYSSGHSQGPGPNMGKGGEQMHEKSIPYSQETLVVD

[2] = target: human APJ and the AT1R receptor (Homo sapiens (Human), UniProt P30556+P35414); experiment: IP1 TR-FRET assay of AngII response with or without APJ agonists in double stable CHO-K1 APJ/AT1R cells; assay type: cell-based; conditions: in the presence of AngII; losartan added
Chain of human APJ and the AT1R receptor (P35414 whole entry, looked up): as the sequence (P35414 whole entry) above
Chain of human APJ and the AT1R receptor (P30556 whole entry, looked up): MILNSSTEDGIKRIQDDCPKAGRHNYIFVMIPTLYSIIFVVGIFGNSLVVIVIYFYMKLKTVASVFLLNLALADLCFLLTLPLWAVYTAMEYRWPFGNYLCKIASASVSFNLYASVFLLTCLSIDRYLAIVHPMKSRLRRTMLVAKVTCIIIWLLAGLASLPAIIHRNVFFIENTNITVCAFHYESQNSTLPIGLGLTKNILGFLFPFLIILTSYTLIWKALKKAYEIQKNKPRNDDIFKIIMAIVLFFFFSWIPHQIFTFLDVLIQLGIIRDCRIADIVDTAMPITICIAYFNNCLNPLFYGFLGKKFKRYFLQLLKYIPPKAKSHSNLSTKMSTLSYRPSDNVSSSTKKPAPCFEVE
Method: Single and double stable recombinant cell lines were generated for human APJ and the AT1R receptor in CHO K1 cells tagged either with FLAG or hemagglutinin (HA) tag. Briefly, the CHO-K1 APJ/AT1R cells were seeded in culture medium of DMEM-F12 and 10% FBS at a density of 15 k/well in a 96 well plate overnight. The next day, the culture medium was replaced with medium containing no serum for 4 hours. The compound AngII at a range of concentrations (1 pM-10 μM) with or without different concentrations of APJ agonists were diluted in stimulation buffer and added to the cell plate. The plate was sealed and incubated for 1 hour. This was followed by addition of IP-d2 conjugate followed by europium cryptate antibody conjugate into the wells. The plate was sealed, followed with incubation for 2 hours at room temperature. Time-resolved fluorescence resonance energy (TR-FRET) at 620 nm and 665 nm was measured after 2 hours with an Envision reader. The signal ratios and delta F were calculated and the amount of IP1 produced was inversely proportional to the TR-FRET ratio, 665/620 nm.

heart failure rat model [3] = assay type: in vivo; conditions: for MI Rat Model dP/dtmax(%): in vivo heart failure (MI) rat, acute administration for 30 min
Method: Male Lewis rats (Charles River, USA) at 2-3 months of age were used for the study. […] APJ agonists were administered dose dependently acutely for a period of 30 min.

[4] = test system: isolated perfused rat hearts; experiment: Ex vivo isolated perfused rat heart (Langendorff) assay, load independent inotropic and lusitropic effects; conditions: ARB losartan together with APJ agonist
[5] = test system: naive Sprague Dawley rat hearts; conditions: for Isolated Heart Assay dP/dtmax(%) / Isolated Heart Assay dP/dtmin(%): ex vivo isolated perfused rat heart, percent change over vehicle; for Isolated Heart Assay dP/dtmax(%): contractility; for Isolated Heart Assay dP/dtmin(%): relaxation (lusitropic)
heart failure rat model [6] = conditions: captopril alone, acute settings, heart failure rats in vivo
[7] = ex vivo naive Sprague Dawley rat hearts, Langendorff apparatus, as a function of concentration

Chain of human AT1R receptor expressed in the CHO cell line (P30556 whole entry): as the sequence (P30556 whole entry, looked up) above

With pyr apelin-13 the “positive cooperativity (IP1 accumulation)” value [1] was “no positive cooperativity observed”.

For apelin-17, the “in vitro activity compared among apelin-36, apelin-17 and apelin-13” value (APJ) is given as “approximately equipotent”.

With CCCCc1nc(Cl)c(CO)n1Cc1ccc(-c2ccccc2-c2nn[nH]n2)cc1 [losartan] the “effect on the positive cooperativity induced by APJ small molecule agonists” value [2] was “relieved this cooperativity”, the “APJ receptor signaling on blocking AT1R, in vivo studies” value (heart failure rat model [3]; ARB losartan together with APJ agonist) was “synergistic effects” and the “APJ receptor signaling on blocking AT1R, ex-vivo studies” value [4] was “synergistic effects”.

For apelin-36, the “in vitro activity compared among apelin-36, apelin-17 and apelin-13” value (APJ) is given as “approximately equipotent”.

For COc1cccc(OC)c1-n1c(NS(=O)(=O)[C@@H](C)[C@H](OC(C)C)c2ncc(C)cn2)nnc1-c1cncc(C)c1 (stereo in doubt) [Example 93.0, (1R,2S)-N-(4-(2,6-dimethoxyphenyl)-5-(5-methylpyridin-3-yl)-4H-1,2,4-triazol-3-yl)-1-isopropoxy-1-(5-methylpyrimidin-2-yl)propane-2-sulfonamide], the “Isolated Heart Assay dP/dtmax(%)” value [5] was 19.0%, the “Isolated Heart Assay dP/dtmin(%)” value [5] was 27.0% and the “MI Rat Model dP/dtmax(%)” value (heart failure rat model [3]) was 20%.

With C[C@H](CS)C(=O)N1CCC[C@H]1C(=O)O [Captopril, captopril] the “contractility or ejection fraction” value (heart failure rat model [6]) was “does not show a marked improvement”.

In the case of COc1cccc(-c2nnc(NS(=O)(=O)[C@@H](C)[C@H](OC)c3ncc(C)cn3)n2-c2c(OC)cccc2OC)n1 [Example 27.0, (1R,2S)-N-(4-(2,6-dimethoxyphenyl)-5-(6-methoxypyridin-2-yl)-4H-1,2,4-triazol-3-yl)-1-methoxy-1-(5-methylpyrimidin-2-yl)propane-2-sulfonamide], the “Isolated Heart Assay dP/dtmax(%)” value [5] is reported as 26%, the “Isolated Heart Assay dP/dtmin(%)” value [5] is reported as 20% and the “left ventricular dP/dtmax (load independent cardiac contractility)” value [5, 7] is reported as “increases load independent cardiac contractility”. The “left ventricular dP/dtmin (load independent cardiac relaxation)” value [5, 7] was “increases load independent cardiac relaxation”, the “MI Rat Model dP/dtmax(%)” value (heart failure rat model [3]) was 20% and the “cardiac contractility as measured by dP/dtmax (derivative of left ventricular pressure)” value (heart failure rat model [3]; male Lewis rats, heart failure by permanent ligation of left descending coronary artery, ejection fraction <35%, dosed acutely for 30 min) was “increase in cardiac contractility”.

Source: patent publication US9845310B2 (priority 2015, dated 2017)
